Molecules are shown by their SMILES. pIC50: −log10 of the molar value.

Assay [1] addresses PYK2 (Homo sapiens (Human), UniProt Q14289). Put plainly: Biochemical assay for PYK2 activity (LANCE TR-FRET, ULight-poly Glu,Ala,Tyr substrate). Conditions: GST-tagged PYK2, 40 min reaction. A digest of the protocol:
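GST-tagged human PYK2 (2 nM working stock) with ULight-poly Glu,Ala,Tyr (1:1:1) peptide (666 nM working stock) and ATP (46.6 μM working stock) in 40 mM Tris pH 7.5, MgCl2, 1 mM DTT, 1 mM CHAPS; 40 min reaction, EDTA quench. Phosphotyrosine read by LANCE Eu-anti-phosphotyrosine (PY20) TR-FRET after 60 min; 12-point 3-fold compound dilutions.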

Assay [2] concerns the target FAK (Homo sapiens (Human), UniProt Q05397). Put plainly: Biochemical assay for FAK activity (LANCE TR-FRET, ULight-poly Glu,Ala,Tyr substrate). Particulars: GST-tagged FAK, 120 min reaction. Put shortly: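 GST-tagged FAK (2.5 nM working stock) with ULight-poly Glu,Ala,Tyr (666 nM stock) and ATP (33.3 μM stock) in Tris pH 7.5/MgCl2/DTT/CHAPS buffer with BSA, 120 min; EDTA-quenched. Phosphorylation read by TR-FRET with Eu-anti-phosphotyrosine (PY20) antibody after 60 min. Compounds tested as 12-point 3-fold dilutions.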

PYK2, sequence (Q14289 whole entry): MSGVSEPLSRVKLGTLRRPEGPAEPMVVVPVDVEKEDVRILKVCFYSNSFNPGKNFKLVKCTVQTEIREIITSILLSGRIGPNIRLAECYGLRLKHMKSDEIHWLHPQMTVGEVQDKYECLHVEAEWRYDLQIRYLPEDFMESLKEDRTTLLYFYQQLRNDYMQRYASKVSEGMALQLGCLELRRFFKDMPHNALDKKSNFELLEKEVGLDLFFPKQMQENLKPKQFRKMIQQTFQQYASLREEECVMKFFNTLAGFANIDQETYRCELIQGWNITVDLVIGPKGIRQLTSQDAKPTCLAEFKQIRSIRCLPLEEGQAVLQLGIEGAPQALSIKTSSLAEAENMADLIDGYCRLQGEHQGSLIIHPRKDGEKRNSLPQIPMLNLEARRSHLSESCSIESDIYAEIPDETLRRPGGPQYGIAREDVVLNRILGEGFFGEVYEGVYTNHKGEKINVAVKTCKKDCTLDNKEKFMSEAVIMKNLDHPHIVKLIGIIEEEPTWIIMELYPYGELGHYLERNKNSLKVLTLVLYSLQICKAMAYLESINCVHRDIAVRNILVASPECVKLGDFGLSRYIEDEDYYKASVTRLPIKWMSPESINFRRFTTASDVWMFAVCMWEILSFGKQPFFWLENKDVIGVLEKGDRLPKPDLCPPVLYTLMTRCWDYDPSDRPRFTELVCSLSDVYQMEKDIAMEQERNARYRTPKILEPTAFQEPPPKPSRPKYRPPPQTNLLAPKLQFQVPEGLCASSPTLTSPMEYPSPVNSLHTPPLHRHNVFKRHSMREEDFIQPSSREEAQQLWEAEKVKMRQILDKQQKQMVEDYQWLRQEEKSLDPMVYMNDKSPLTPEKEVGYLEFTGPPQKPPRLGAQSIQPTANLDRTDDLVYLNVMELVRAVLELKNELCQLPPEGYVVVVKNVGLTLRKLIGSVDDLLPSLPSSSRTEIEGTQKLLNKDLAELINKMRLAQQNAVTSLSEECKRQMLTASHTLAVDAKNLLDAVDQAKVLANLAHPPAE
FAK, sequence (Q05397 whole entry): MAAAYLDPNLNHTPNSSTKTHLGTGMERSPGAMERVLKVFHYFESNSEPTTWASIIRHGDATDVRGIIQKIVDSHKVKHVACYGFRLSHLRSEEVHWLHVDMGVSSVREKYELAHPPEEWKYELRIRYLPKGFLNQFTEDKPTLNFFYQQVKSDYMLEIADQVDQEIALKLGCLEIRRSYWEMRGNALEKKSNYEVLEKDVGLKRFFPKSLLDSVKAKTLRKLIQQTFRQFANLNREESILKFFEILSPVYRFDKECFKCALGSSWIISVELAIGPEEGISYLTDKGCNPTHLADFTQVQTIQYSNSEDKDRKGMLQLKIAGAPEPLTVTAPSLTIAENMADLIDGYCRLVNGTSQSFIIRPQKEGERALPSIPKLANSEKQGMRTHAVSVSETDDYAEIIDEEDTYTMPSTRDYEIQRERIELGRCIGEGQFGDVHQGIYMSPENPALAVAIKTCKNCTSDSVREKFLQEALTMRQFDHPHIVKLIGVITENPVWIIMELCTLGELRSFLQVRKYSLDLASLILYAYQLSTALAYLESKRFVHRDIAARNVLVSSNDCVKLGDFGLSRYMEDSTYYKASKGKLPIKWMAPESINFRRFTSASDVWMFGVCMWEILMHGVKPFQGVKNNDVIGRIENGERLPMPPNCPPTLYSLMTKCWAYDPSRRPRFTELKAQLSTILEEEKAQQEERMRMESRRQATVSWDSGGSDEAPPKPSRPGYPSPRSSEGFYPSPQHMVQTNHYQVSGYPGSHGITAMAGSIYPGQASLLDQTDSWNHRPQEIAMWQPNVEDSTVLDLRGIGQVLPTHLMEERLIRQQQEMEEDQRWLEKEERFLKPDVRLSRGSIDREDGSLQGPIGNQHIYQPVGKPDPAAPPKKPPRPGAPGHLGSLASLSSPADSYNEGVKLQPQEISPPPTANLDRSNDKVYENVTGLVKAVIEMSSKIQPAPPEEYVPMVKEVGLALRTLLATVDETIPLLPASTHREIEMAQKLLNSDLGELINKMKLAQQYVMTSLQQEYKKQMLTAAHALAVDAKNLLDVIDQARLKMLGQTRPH

In the case of `CCC(C)NS(=O)(=O)c1ccccc1Nc1nc(Nc2ccc(N3CCOCC3)cc2OC)nc2c1C(C)(C)CN2` (stereo not shown) [Example 112, N-sec-butyl-2-(2-(2-methoxy-4-morpholinophenylamino)-5,5-dimethyl-6,7-dihydro-5H-pyrrolo[2,3-d]pyrimidin-4-ylamino)benzenesulfonamide], the pIC50 in assay [1] and in assay [2] was over 7.70 throughout.
For the molecule `COc1cc(N2CCOCC2)ccc1Nc1nc2c(c(Nc3ccccc3S(=O)(=O)NC3CC3)n1)C1(CC1)CN2` [Example 146, N-cyclopropyl-2-(2′-(2-methoxy-4-morpholinophenylamino)-6′,7′-dihydrospiro[cyclopropane-1,5′-pyrrolo[2,3-d]pyrimidine]-4′-ylamino)benzenesulfonamide], the negative logarithm of the IC50 (pIC50) in assay [1] and in assay [2] was under 6.00 throughout.
For `CC(C)NS(=O)(=O)c1ccccc1Nc1nc(Nc2ccc(OC(F)(F)F)cc2)nc2c1CCN2` [Example 71, N-isopropyl-2-(2-(4-(trifluoromethoxy)phenylamino)-6,7-dihydro-5H-pyrrolo[2,3-d]pyrimidin-4-ylamino)benzenesulfonamide], the results for the pIC50 in assay [1] and in assay [2] were over 7.00 and over 6.70, respectively.
As to `CNS(=O)(=O)c1ccccc1Nc1nc(Nc2ccc(N3CCOCC3)cc2OC)nc2c1C(C)(C)CN2` [Example 103, 2-(2-(2-methoxy-4-morpholinophenylamino)-5,5-dimethyl-6,7-dihydro-5H-pyrrolo[2,3-d]pyrimidin-4-ylamino)-N-methylbenzenesulfonamide], the pIC50 in assay [1] and in assay [2] was over 7.70 each time.
In the case of `COCCNS(=O)(=O)c1ccccc1Nc1nc(Nc2ccc(N3CCOCC3)cc2OC)nc2c1CCN2` [Example 50, 2-(2-(2-methoxy-4-morpholinophenylamino)-6,7-dihydro-5H-pyrrolo[2,3-d]pyrimidin-4-ylamino)-N-(2-methoxyethyl)benzenesulfonamide], the pIC50 in assay [1] and in assay [2] was over 7.30 each time.
Take `CC(=O)Nc1cccc(Nc2nc3c(c(Nc4ccccc4S(=O)(=O)NC(C)C)n2)CCN3)c1` [Example 75, N-(3-(4-(2-(N-isopropylsulfamoyl)phenylamino)-6,7-dihydro-5H-pyrrolo[2,3-d]pyrimidin-2-ylamino)phenyl)acetamide]: the pIC50 in assay [1] and in assay [2] was over 7.70 in each case.
`COc1cc(N2CCOCC2)ccc1Nc1nc2c(c(Nc3ccccc3S(=O)(=O)Nc3ccccc3)n1)CCN2` [Example 51, 2-(2-(2-methoxy-4-morpholinophenylamino)-6,7-dihydro-5H-pyrrolo[2,3-d]pyrimidin-4-ylamino)-N-phenylbenzenesulfonamide]: the negative logarithm of the IC50 (pIC50) was over 6.30 in assay [1] and over 6.70 in assay [2].
The matching figures for `COc1cc(N2CCOCC2)ccc1Nc1nc2c(c(Nc3ccccc3N(C)S(C)(=O)=O)n1)C(C)(C)CN2` [Example 122, N-(2-(2-(2-methoxy-4-morpholinophenylamino)-5,5-dimethyl-6,7-dihydro-5H-pyrrolo[2,3-d]pyrimidin-4-ylamino)phenyl)-N-methylmethanesulfonamide]: over 7.00 and over 7.30.
Consider `COc1cc(N2CCCCC2)ccc1Nc1nc2c(c(Nc3ccccc3S(=O)(=O)NC(C)C)n1)CCN2` [Example 68, N-isopropyl-2-(2-(2-methoxy-4-(piperidin-1-yl)phenylamino)-6,7-dihydro-5H-pyrrolo[2,3-d]pyrimidin-4-ylamino)benzenesulfonamide], for which the pIC50 in assay [1] was over 6.70; in assay [2], over 7.30.
With `COc1cc(N2CCOCC2)ccc1Nc1nc2c(c(Nc3ccccc3S(=O)(=O)N(C)C)n1)C(C)(C)CN2` [Example 111, 2-(2-(2-methoxy-4-morpholinophenylamino)-5,5-dimethyl-6,7-dihydro-5H-pyrrolo[2,3-d]pyrimidin-4-ylamino)-N,N-dimethylbenzenesulfonamide], the negative-log IC50 (pIC50) in assay [1] and in assay [2] was over 7.70 throughout.
Take `CNC(=O)c1ccccc1Nc1nc(Nc2cccc3c2ccn3CCCN2CCOCC2)nc2c1CCN2` [Example 22, N-methyl-2-(2-(1-(3-morpholinopropyl)-1H-indol-4-ylamino)-6,7-dihydro-5H-pyrrolo[2,3-d]pyrimidin-4-ylamino)benzamide]: the negative-log IC50 (pIC50) in assay [1] is over 6.70; in assay [2] it was over 7.00.
In the case of `COc1cc(N2CCOCC2)ccc1Nc1nc2c(c(Nc3ccccc3S(=O)(=O)NC3CCCCC3)n1)CCN2` [Example 8, N-cyclohexyl-2-(2-(2-methoxy-4-morpholinophenylamino)-6,7-dihydro-5H-pyrrolo[2,3-d]pyrimidin-4-ylamino)benzenesulfonamide], the pIC50 in assay [1] is over 6.30; in assay [2], over 6.70.
Take `COc1cc(N2CCOCC2)ccc1Nc1nc2c(c(Nc3ccccc3S(=O)(=O)Nc3ccccc3)n1)C1(CC1)CN2` [Example 143, 2-(2′-(2-methoxy-4-morpholinophenylamino)-6′,7′-dihydrospiro[cyclopropane-1,5′-pyrrolo[2,3-d]pyrimidine]-4′-ylamino)-N-phenylbenzenesulfonamide]: the pIC50 was over 6.70 in assay [1] and over 7.00 in assay [2].
Regarding `CNC(=O)c1ccccc1Nc1nc(Nc2cccc3c2OCCO3)nc2c1C(C)(C)CN2` [Example 128, 2-(2-(2,3-dihydrobenzo[b][1,4]dioxin-5-ylamino)-5,5-dimethyl-6,7-dihydro-5H-pyrrolo[2,3-d]pyrimidin-4-ylamino)-N-methylbenzamide], the pIC50 in assay [1] and in assay [2] was over 7.70 each time.
On to `CC(C)NS(=O)(=O)c1ccccc1Nc1nc(Nc2ccc(C(=O)N(C)C)cc2)nc2c1CCN2` [Example 62, 4-(4-(2-(N-isopropylsulfamoyl)phenylamino)-6,7-dihydro-5H-pyrrolo[2,3-d]pyrimidin-2-ylamino)-N,N-dimethylbenzamide], for which the pIC50 in assay [1] and in assay [2] was over 7.70 throughout.
Consider `COc1cc(N2CCOCC2)ccc1Nc1nc2c(c(Nc3ccccc3S(=O)(=O)NCC3CC3)n1)C(C)(C)CN2` [Example 118, N-(cyclopropylmethyl)-2-(2-(2-methoxy-4-morpholinophenylamino)-5,5-dimethyl-6,7-dihydro-5H-pyrrolo[2,3-d]pyrimidin-4-ylamino)benzenesulfonamide], for which the pIC50 in assay [1] and in assay [2] was over 7.30 throughout.
For `COc1cc(NCCN2CCOCC2)ccc1Nc1nc2c(c(Nc3ccccc3S(=O)(=O)NC(C)C)n1)CCN2` [Example 85, N-isopropyl-2-(2-(2-methoxy-4-(2-morpholinoethylamino)phenylamino)-6,7-dihydro-5H-pyrrolo[2,3-d]pyrimidin-4-ylamino)benzenesulfonamide], the pIC50 in assay [1] and in assay [2] was over 7.70 throughout.
